Test: xn = mol fraction of the nth substance listed
Conditions: 100 kPa, Liquid; for speed of sound: Sing-around technique in a fixed-path interferometer; for mass density: Vibrating tube method

Cc1ccccc1Cl [2-chlorotoluene] + C1CCCCC1
Conditions | mass density, 298.15 K [kg/m3] | mass density, 303.15 K [kg/m3] | mass density, 308.15 K [kg/m3] | speed of sound, 298.15 K [m/s] | speed of sound, 303.15 K [m/s] | speed of sound, 308.15 K [m/s]
x1 = 0.1098 | 808.15 | 803.38 | 798.58 | 1251.3 | 1227.6 | 1204.7
x1 = 0.1437 | 818.67 | 813.9 | 809.09 | 1251 | 1227.7 | 1205
x1 = 0.1987 | 835.72 | 830.93 | 826.11 | 1251.1 | 1228.2 | 1205.9
x1 = 0.2356 | 847.14 | 842.33 | 837.5 | 1251.5 | 1228.8 | 1206.7
x1 = 0.2874 | 863.12 | 858.3 | 853.47 | 1252.4 | 1230 | 1208.1
x1 = 0.3256 | 874.88 | 870.06 | 865.22 | 1253.4 | 1231.2 | 1209.5
x1 = 0.3876 | 893.92 | 889.08 | 884.22 | 1255.3 | 1233.6 | 1212.2
x1 = 0.4135 | 901.85 | 897.01 | 892.15 | 1256.2 | 1234.8 | 1213.4
x1 = 0.4834 | 923.2 | 918.34 | 913.47 | 1259.3 | 1238.4 | 1217.4
x1 = 0.5243 | 935.64 | 930.78 | 925.9 | 1261.4 | 1240.7 | 1220
x1 = 0.5763 | 951.42 | 946.54 | 941.65 | 1264.3 | 1244 | 1223.6
x1 = 0.6143 | 962.9 | 958.02 | 953.13 | 1266.5 | 1246.6 | 1226.5
x1 = 0.6654 | 978.29 | 973.4 | 968.5 | 1269.9 | 1250.3 | 1230.7
x1 = 0.7154 | 993.29 | 988.4 | 983.48 | 1273.4 | 1254.3 | 1235
x1 = 0.7654 | 1008.2 | 1003.3 | 998.42 | 1277.2 | 1258.4 | 1239.6
x1 = 0.8165 | 1023.4 | 1018.5 | 1013.6 | 1281.3 | 1262.9 | 1244.4
x1 = 0.8324 | 1028.1 | 1023.2 | 1018.3 | 1282.6 | 1264.3 | 1246
x1 = 0.8965 | 1047.1 | 1042.2 | 1037.3 | 1288.4 | 1270.3 | 1252.3
